Drawing on patent US9409884B2 (Rigel Pharmaceuticals, Inc., priority 2012, dated 2016), this text covers EC50 for 29 molecules.

pEC50: −log10 of the molar value.

In one test the target is AMPK. The test can be described thus: AMPK activation, enzyme-linked immunosorbent assay. It counts as biochemical. As to conditions: Table 8, compounds of Table 1. Put shortly: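 AMPK activation by test compounds was measured by enzyme-linked immunosorbent assay.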
Usually pEC50 stands for −log10 of the EC50, conventionally taken in molar units. `Cc1c(C(=O)NC2CCN(C(=O)OC(C)(C)C)CC2)oc2cc(OC3CCN(c4ccc(C(F)(F)F)cc4)CC3)ccc12` [Compound 1-61, tert-butyl 4-(3-methyl-6-(1-(4-(trifluoromethyl)phenyl)piperidin-4-yloxy)benzofuran-2-carboxamido) piperidine-1-carboxylate] had a pEC50 of 6.30 to 7.00.

In turn, `NC(=O)c1ccc(CN2CCC(Oc3ccc4oc(C(=O)NC5CCN(Cc6ccncc6)CC5)cc4c3)CC2)cc1` [Compound 1-131, 5-(1-(4-carbamoylbenzyl)piperidin-4-yloxy)-N-(1-(pyridin-4-ylmethyl)piperidin-4-yl)benzofuran-2-carboxamide] had a pEC50 of 5.30 to 6.00. Still for that read-out and setting: the value for `O=C(N[C@H]1CCN(Cc2ccncc2)C1)c1cc2cc(OC3CCN(Cc4ccc(Cl)cc4)CC3)ccc2o1` [Compound 1-129, (S)-5-(1-(4-chlorobenzyl)piperidin-4-yloxy)-N-(1-(pyridin-4-ylmethyl)pyrrolidin-3-yl)benzofuran-2-carboxamide] was 5.30 to 6.00.

The molecule `CS(=O)(=O)c1ccc(CN2CC[C@@H](Oc3ccc4oc(C(=O)NC5CCN(Cc6ccc(OC(F)(F)F)cc6)CC5)cc4c3)[C@H](F)C2)cc1` [Compound 1-172, 5-((3,4-trans)-3-fluoro-1-(4-(methylsulfonyl)benzyl)piperidin-4-yloxy)-N-(1-(4-(trifluoromethoxy)benzyl)piperidin-4-yl)benzofuran-2-carboxamide] had a pEC50 of over 7.00.

`N#Cc1ccc(CN2CCC(NC(=O)c3cc4cc(OC5CCN(C(=O)c6ccc(-n7cccn7)cc6)CC5)ccc4o3)CC2)cc1` [Compound 1-163, 5-(1-(4-(1H-pyrazol-1-yl)benzoyl)piperidin-4-yloxy)-N-(1-(4-cyanobenzyl)piperidin-4-yl)benzofuran-2-carboxamide]: the pEC50 is over 7.00. In the case of `O=C(NC1CCN(Cc2ccncc2)CC1)c1sc2cc(OC3CCN(c4ccc(C(F)(F)F)cc4)CC3)ccc2c1Cl` [Compound 1-151, 3-chloro-N-(1-(pyridin-4-ylmethyl)piperidin-4-yl)-6-(1-(4-(trifluoromethyl)phenyl)piperidin-4-yloxy)benzo[b] thiophene-2-carboxamide], the negative-log EC50 (pEC50) is over 7.00.

Still in this test, the particulars now being: Table 9, compounds of Table 2.
In turn, `N#Cc1ccc(S(=O)(=O)N2CCC(NC(=O)c3ccc4[nH]c5c(c4c3)CN(Cc3ccc(C(F)(F)F)cc3)CC5)CC2)cc1` [Compound 2-21, N-(1-(4-cyanophenylsulfonyl)piperidin-4-yl)-2-(4-(trifluoromethyl)benzyl)-2,3,4,5-tetrahydro-1H-pyrido[4,3-b]indole-8-carboxamide] gave a pEC50 of 6.00 to 6.30.

The test is the same for the next values; noted with them: Table 10, compounds of Table 3.
The molecule `N#Cc1ccc(C(=O)N2CC3CC2CN3C(=O)c2nc3ccc(OC4CCN(c5ccc(C(F)(F)F)cc5)CC4)cc3o2)cc1` (centres unmarked) [Compound 3-12, 4-(5-(6-(1-(4-(trifluoromethyl)phenyl)piperidin-4-yloxy)benzo[d]oxazole-2-carbonyl)-2,5-diazabicyclo[2.2.1]heptane-2-carbonyl)benzonitrile] gave a pEC50 of over 7.00. On to `N#Cc1ccc(CN2CCC(NC(=O)c3ccc4c(c3)CN(Cc3ccc(F)cc3)CC4)CC2)cc1` [Compound 3-34, N-(1-(4-cyanobenzyl)piperidin-4-yl)-2-(4-fluorobenzyl)-1,2,3,4-tetrahydroisoquinoline-7-carboxamide], for which the pEC50 is over 7.00.

The same test, now with this note: Table 12, compounds of Table 5.
For `COc1cc(C(=O)NCCCN2CCOCC2)ccc1OC1CCN(Cc2ccc(Cl)cc2)CC1` [Compound 5-98, 4-(1-(4-chlorobenzyl)piperidin-4-yloxy)-4-methoxy-N-(3-morpholinopropyl)benzamide], the pEC50 is 5.00 to 6.00.

The molecule `O=C(NC1CCN(Cc2ccccc2)CC1)c1ccc(OC2CCN(Cc3ccc(OC(F)(F)F)cc3)CC2)c(Cl)c1` [Compound 5-54, N-(1-benzylpiperidin-4-yl)-3-chloro-4-(1-(4-(trifluoromethoxy)benzyl)piperidin-4-yloxy)benzamide] gave a pEC50 of over 6.00. The molecule `CC(C)S(=O)(=O)N1CCC(NC(=O)c2ccc(OC3CCN(c4ccc(C(F)(F)F)cc4)CC3)c(F)c2)CC1` [Compound 5-34, 3-fluoro-N-(1-(isopropylsulfonyl)piperidin-4-yl)-4-(1-(4-(trifluoromethyl)phenyl)piperidin-4-yloxy)benzamide] showed a pEC50 of over 6.00. Still for that read-out and setting: next, `N#Cc1ccc(CN2CCC(NC(=O)c3cccc(OC4CCN(Cc5ccc(C#N)c(F)c5)CC4)c3)CC2)cc1` [Compound 5-120, 3-(1-(4-cyano-3-fluorobenzyl)piperidin-4-yloxy)-N-(1-(4-cyanobenzyl)piperidin-4-yl)benzamide]: over 6.00.

The test is the same for the next values; noted with them: Table 13, compounds of Table 6.
As to `CS(=O)(=O)c1ccc(CN2CCN(C(=O)c3ccc4oc(C(=O)NC5CCN(Cc6ccc(OC(F)(F)C(F)F)cc6)CC5)cc4c3)CC2)cc1` [Compound 6-156, 5-(4-(4-(methylsulfonyl)benzyl)piperazine-1-carbonyl)-N-(1-(4-(1,1,2,2-tetrafluoroethoxy)benzyl)piperidin-4-yl)benzofuran-2-carboxamide], the pEC50 is over 7.00. Same read-out and setting: the value for `N#Cc1ccc(CN2CCC(NC(=O)c3cc4cc(NC(=O)C5CCN(Cc6ccc(F)c(F)c6)CC5)ccc4o3)CC2)cc1` [Compound 6-43, N-(2-(1-(4-cyanobenzyl)piperidin-4-ylcarbamoyl)benzofuran-5-yl)-1-(3,4-difluorobenzyl)piperidine-4-carboxamide] was 6.00 to 7.00; that for `N#Cc1ccc(CN2CCC(NC(=O)c3cc4cc(NC(=O)C5CCN(c6ccc(C(F)(F)F)cc6)CC5)ccc4o3)CC2)cc1` [Compound 6-83, N-(2-(1-(4-cyanobenzyl)piperidin-4-ylcarbamoyl)benzofuran-5-yl)-1-(4-(trifluoromethyl)phenyl) piperidine-4-carboxamide] was 5.00 to 6.00. Take `CS(=O)(=O)c1ccc(CN2CCN(C(=O)c3ccc4oc(C(=O)NC5CCN(Cc6ccc(C#N)c(F)c6)CC5)cc4c3)CC2)cc1` [Compound 6-145, N-(1-(4-cyano-3-fluorobenzyl)piperidin-4-yl)-5-(4-(4-(methylsulfonyl)benzyl)piperazine-1-carbonyl) benzofuran-2-carboxamide]: the pEC50 is over 7.00. On the same count and under the same terms, the value for `CS(=O)(=O)c1ccc(CN2CCN(C(=O)c3ccc4oc(C(=O)NC5CCN(Cc6ccc(C#N)cc6)CC5)cc4c3)CC2)cc1` [Compound 6-123, N-(1-(4-cyanobenzyl)piperidin-4-yl)-5-(4-(4-(methylsulfonyl)benzyl)piperazine-1-carbonyl) benzofuran-2-carboxamide] was over 7.00; that for `N#Cc1ccc(CN2CCC(NC(=O)c3cc4cc(C(=O)N5CCC(C(=O)c6ccc(F)cc6)CC5)ccc4o3)CC2)cc1` [Compound 6-16, N-(1-(4-cyanobenzyl)piperidin-4-yl)-5-(4-(4-fluorobenzoyl)piperidine-1-carbonyl)benzofuran-2-carboxamide] was over 7.00; that for `N#Cc1ccc(CN2CCC(NC(=O)c3cc4cc(C(=O)N5CCN(Cc6cnn(-c7ccc(C#N)cc7)c6)CC5)ccc4o3)CC2)cc1` [Compound 6-77, N-(1-(4-cyanobenzyl)piperidin-4-yl)-5-(4-((1-(4-cyanophenyl)-1H-pyrazol-4-yl)methyl)piperazine-1-carbonyl)benzofuran-2-carboxamide] was over 7.00. The same measure, in the same setting: next, `N#Cc1ccc(CN2CCC(NC(=O)c3cc4cc(C(=O)N5CCC(Oc6ccc(S(=O)(=O)C(F)(F)F)cc6)CC5)ccc4o3)CC2)cc1` [Compound 6-124, N-(1-(4-cyanobenzyl)piperidin-4-yl)-5-(4-(4-(trifluoromethylsulfonyl)phenoxy)piperidine-1-carbonyl)benzofuran-2-carboxamide]: over 7.00; `N#Cc1ccc(CC(=O)Nc2ccc3oc(C(=O)NC4CCN(Cc5ccc(C#N)cc5)CC4)cc3c2)cc1` [Compound 6-67, N-(1-(4-cyanobenzyl)piperidin-4-yl)-5-(2-(4-cyanophenyl)acetamido) benzofuran-2-carboxamide]: 5.00 to 6.00; `Cc1nnsc1C(=O)Nc1ccc2oc(C(=O)NC3CCN(Cc4ccc(C#N)cc4)CC3)cc2c1` [Compound 6-56, N-(2-(1-(4-cyanobenzyl)piperidin-4-ylcarbamoyl)benzofuran-5-yl)-4-methyl-1,2,3-thiadiazole-5-carboxamide]: 5.00 to 6.00.

Consider `CS(=O)(=O)c1ccc(N2CCN(c3ccc4oc(C(=O)NC5CCN(Cc6ccc(C#N)cc6)CC5)cc4c3)CC2)cc1` [Compound 6-9, N-(1-(4-cyanobenzyl)piperidin-4-yl)-5-(4-(4-(methylsulfonyl)phenyl)piperazin-1-yl)benzofuran-2-carboxamide], for which the pEC50 is 6.00 to 7.00. The molecule `COc1cccc(CN2CCC(NC(=O)c3cc4cc(C(=O)N5CCN(Cc6ccc(S(C)(=O)=O)cc6)CC5)ccc4o3)CC2)c1` [Compound 6-99, N-(1-(3-methoxybenzyl)piperidin-4-yl)-5-(4-(4-(methylsulfonyl)benzyl)piperazine-1-carbonyl) benzofuran-2-carboxamide] gave a pEC50 of 5.00 to 6.00.

The same test, now with this note: Table 14, compounds of Table 7.
`COc1ccc(C(=O)C2CCCN(C(=O)c3ccc(C(=O)Nc4ccc(Oc5ccc(C(C)=O)cc5)nc4)cn3)C2)cc1` (centres unmarked) [Compound 7-11, N-(6-(4-acetylphenoxy)pyridin-3-yl)-6-(3-(4-methoxybenzoyl)piperidine-1-carbonyl)nicotinamide] had a pEC50 of 5.00 to 6.00. On the same count and under the same terms, next, `CC(=O)c1ccc(OC2CCN(C(=O)c3ccc(C(=O)NC4CCN(Cc5ccc(OC(F)(F)F)cc5)C[C@H]4F)cn3)CC2)cc1` (stereo partly drawn) [Compound 7-52, 6-(4-(4-acetylphenoxy)piperidine-1-carbonyl)-N-((3,4-trans)-3-fluoro-1-(4-(trifluoromethoxy)benzyl)piperidin-4-yl)nicotinamide]: over 6.00. Still for that read-out and setting: next, `CC(=O)c1ccc(Oc2ccc(NC(=O)c3ccc(C(=O)N4CCC(Oc5ccc6sc(C)nc6c5)CC4)nc3)cn2)cc1` [Compound 7-20, N-(6-(4-acetylphenoxy)pyridin-3-yl)-6-(4-(2-methylbenzo[d]thiazol-5-yloxy)piperidine-1-carbonyl)nicotinamide]: over 6.00; `N#Cc1ccc(CN2CCC(NC(=O)c3ccc(N4CCN(c5ccc(C(=O)C6CC6)cc5)CC4)nc3)CC2)cc1` [Compound 7-81, N-(1-(4-cyanobenzyl)piperidin-4-yl)-6-(4-(4-(cyclopropanecarbonyl)phenyl)piperazin-1-yl)nicotinamide]: over 6.00.
